Data set [1] in a line: Stability of the compound at 100 uM in presence of DTT. The format is physicochemical.
The subject of a further data set is HGC-27. In words: Cytotoxicity against human HGC-27 cells assessed as inhibition of cell growth incubated for 72 hrs by SRB assay. As to conditions: HGC-27, 72 h. Type of data set: functional, cell-based. (In general: Sulforhodamine B stains cellular protein and so reports cell mass.)
Data set [2] deals with T1, Exportin-1 (Homo sapiens, UniProt O14980). The experiment in a line: Inhibition of human CRM1 at 50 uM by GST-NES MVM based pulldown assay.
The target of data set [3] is T1, Exportin-1. The experiment in a line: Binding affinity to CRM1 in human HeLa cells assessed as thermal stabilization at 100 uM at 4 to 90 degreeC incubated for 3 mins by […] analysis. The format is cell-based.
For data set [4], the target named is T1, Exportin-1. The experiment in a line: Inhibition of human CRM1 at 3 to 30 uM by GST-NES MVM based pulldown assay. The following applies: dose 3-30 µM.
The target of data set [5] is T1, Exportin-1. In words: Non-covalent inhibition of human CRM1 at 100 uM by GST-NES MVM based pulldown assay.
For data set [6], the system named is Exportin-1 (Homo sapiens), O14980 [C528S]. In words: Inhibition of human CRM1 C7 fragment C528S mutant at 50 to 100 uM by GST-NES MVM based pulldown assay. The following applies: dose 50-100 µM.
The test system of another data set is MGC-803. In words: Cytotoxicity against human MGC-803 cells assessed as inhibition of cell growth at 50 uM incubated for 72 hrs by SRB assay. Type of data set: functional, cell-based.
A further data set has as its system A2780. In words: Cytotoxicity against human A2780 cells assessed as inhibition of cell growth at 50 uM incubated for 72 hrs by SRB assay. The format is functional, cell-based.
Data set [7] addresses T1, Exportin-1. In words: Inhibition of CRM1 in semi-permeabilized human HeLa cells transfected with GFP-NES-NLS fusion plasmid assessed as inhibition of nuclear export of cargoes at 50 to 100 uM incubated for 30 mins by immunostaining analysis. The format is cell-based. As to conditions: dose 50-100 µM.
Data set [8] has as its system MDA-MB-453. In words: Synergistic cytotoxicity against human MDA-MB-453 cells assessed as combination index at 100 uM incubated for 3 days in presence of 30 nM doxorubicin by SRB assay. The following applies: time 3 day. Type of data set: functional.
For data set [9], the system named is MDA-MB-453. In words: Synergistic cytotoxicity against human MDA-MB-453 cells assessed as combination index at 100 uM incubated for 3 days in presence of 810 nM doxorubicin by SRB assay. The following applies: time 3 day. Type of data set: functional.
The subject of data set [10] is MDA-MB-453. In words: Cytotoxicity against human MDA-MB-453 cells assessed as inhibition of cell growth at 50 uM incubated for 72 hrs by SRB assay. Type of data set: functional, cell-based.
Data set [11] deals with MDA-MB-453. The experiment in a line: Synergistic cytotoxicity against human MDA-MB-453 cells assessed as combination index at 100 uM incubated for 3 days in presence of 10 nM doxorubicin by SRB assay. Type of data set: functional. As to conditions: time 3 day.
The test system of the next data set is HeLa. The experiment in a line: Cytotoxicity against human HeLa cells assessed as inhibition of cell growth at 50 uM incubated for 72 hrs by SRB assay. Type of data set: functional, cell-based.
A further data set relates to HepG2. In words: Cytotoxicity against human HepG2 cells assessed as inhibition of cell growth at 50 uM incubated for 72 hrs by SRB assay. The format is functional, cell-based.
In a further data set the test system is SW480. The experiment in a line: Cytotoxicity against human SW480 cells assessed as inhibition of cell growth at 50 uM incubated for 72 hrs by SRB assay. Type of data set: functional, cell-based.
For data set [12], the target named is T1, Exportin-1. The experiment in a line: Binding affinity to NES groove of human CRM1 C7 fragment at 50 to 100 uM by GST-NES MVM based pulldown assay. The following applies: dose 50-100 µM.
Data set [13] has as its system MDA-MB-453. The experiment in a line: Synergistic cytotoxicity against human MDA-MB-453 cells assessed as combination index at 100 uM incubated for 3 days in presence of 270 nM doxorubicin by SRB assay. Type of data set: functional. The following applies: time 3 day.
Data set [14] deals with T1, Exportin-1. The experiment in a line: Inhibition of CRM1 in intact human HeLa cells transfected with GFP-NES-NLS fusion plasmid assessed as inhibition of nuclear export of cargoes at 200 uM incubated for 30 mins by immunostaining analysis. Type of data set: cell-based.
The next data set concerns Ishikawa. The experiment in a line: Cytotoxicity against human Ishikawa cells assessed as inhibition of cell growth at 50 uM incubated for 72 hrs by SRB assay. The format is functional, cell-based.
The next data set concerns PANC-1. In words: Cytotoxicity against human PANC-1 cells assessed as inhibition of cell growth at 50 uM incubated for 72 hrs by SRB assay. Type of data set: functional, cell-based.
In data set [15] the target is T1, Exportin-1. The experiment in a line: Competitive inhibition of human CRM1 assessed as dissociation constant incubated in presence of RanGTP and IAF-conjugated protein kinase inhibitor peptide by MST assay.
Data set [16] relates to MDA-MB-453. The experiment in a line: Synergistic cytotoxicity against human MDA-MB-453 cells assessed as combination index at 100 uM incubated for 3 days in presence of 90 nM doxorubicin by SRB assay. Type of data set: functional. The following applies: time 3 day.

Molecules are shown by their SMILES. Active and inactive are the calls of the source. No cut-off for these calls is given here.

T1 sequence (O14980 whole entry): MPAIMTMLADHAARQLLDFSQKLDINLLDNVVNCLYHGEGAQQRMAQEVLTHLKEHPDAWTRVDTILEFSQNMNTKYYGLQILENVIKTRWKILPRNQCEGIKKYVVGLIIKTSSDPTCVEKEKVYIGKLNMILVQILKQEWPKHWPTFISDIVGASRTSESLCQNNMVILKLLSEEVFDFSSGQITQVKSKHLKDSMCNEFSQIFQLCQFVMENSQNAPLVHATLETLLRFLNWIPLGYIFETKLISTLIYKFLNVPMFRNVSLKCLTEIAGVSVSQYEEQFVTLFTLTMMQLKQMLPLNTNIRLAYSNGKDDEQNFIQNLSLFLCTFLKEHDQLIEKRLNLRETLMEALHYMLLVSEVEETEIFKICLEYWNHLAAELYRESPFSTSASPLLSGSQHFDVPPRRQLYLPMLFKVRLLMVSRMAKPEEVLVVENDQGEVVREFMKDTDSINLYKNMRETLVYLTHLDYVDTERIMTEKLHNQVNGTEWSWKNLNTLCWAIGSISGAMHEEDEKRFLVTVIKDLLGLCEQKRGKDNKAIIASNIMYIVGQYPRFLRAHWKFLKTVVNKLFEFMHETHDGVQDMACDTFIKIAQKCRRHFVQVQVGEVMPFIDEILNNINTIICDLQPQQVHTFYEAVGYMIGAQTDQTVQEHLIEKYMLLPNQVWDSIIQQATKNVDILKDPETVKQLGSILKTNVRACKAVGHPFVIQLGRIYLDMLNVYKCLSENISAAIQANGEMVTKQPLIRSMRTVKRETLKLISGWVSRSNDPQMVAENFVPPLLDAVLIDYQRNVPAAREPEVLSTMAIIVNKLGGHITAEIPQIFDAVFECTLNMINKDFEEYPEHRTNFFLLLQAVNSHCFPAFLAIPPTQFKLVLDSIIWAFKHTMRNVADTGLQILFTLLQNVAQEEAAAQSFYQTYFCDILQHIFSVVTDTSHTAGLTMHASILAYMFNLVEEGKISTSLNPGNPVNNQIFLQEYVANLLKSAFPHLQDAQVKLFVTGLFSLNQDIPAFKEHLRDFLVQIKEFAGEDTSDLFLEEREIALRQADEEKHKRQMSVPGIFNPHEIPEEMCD
Chain of Exportin-1 (Homo sapiens), O14980 [C528S] (O14980 whole entry C528S, the tested form may be a part): as the sequence (O14980 whole entry) above, with C528S counted along it

Consider `CC(C)CCNC/C=C/[S+]([O-])c1cc(C(F)(F)F)cc(C(F)(F)F)c1` (stereo unspecified), for which, in data set [1], the Stability entry is recorded as “Unstable”.

As for `COc1cc(C(=O)N(C)S(=O)(=O)c2ccccc2C)ccc1Cc1cn(C)c2ccc(NC(=O)OC3CCCC3)cc12`, the IC50 – broadly, the midpoint of a concentration-inhibition curve – with HGC-27 was determined as 285 µM. For the same compound, the inhibition result at Exportin-1 [2] and at Exportin-1 [2] (tested as the 2H-labelled form) was “inactive” in each case. Also, on Exportin-1 [3], the outcome was inactive.

With `[2H]C([2H])([2H])N(C(=O)c1ccc(Cc2cn(C)c3ccc(NC(=O)OC4CCCC4)cc23)c(OC)c1)S(=O)(=O)c1ccccc1C`, the IC50 in the data set with HGC-27 was determined as 457 µM.

As to `COC(=O)Nc1ccc2c(c1)c(Cc1ccc(C(=O)NS(=O)(=O)c3ccccc3C)cc1OC)cn2C`, the IC50 with HGC-27 is 44 µM. Moreover, on Exportin-1 [4], the inhibition entry was “Active”.

Consider `COc1cc(C(=O)NS(=O)(=O)c2cccc(C)c2)ccc1Cc1cn(C)c2ccc(NC(=O)OC3CCCC3)cc12`, for which the IC50 with HGC-27 worked out at 44 µM. Moreover, the inhibition result on Exportin-1 [4] was “Active”.

As to `COc1cc(C(=O)NS(=O)(=O)c2ccc(C)cc2)ccc1Cc1cn(C)c2ccc(NC(=O)OC3CCCC3)cc12`, the IC50 with HGC-27 is 44 µM.

Take `CC(O)(CS(=O)(=O)c1ccc(F)cc1)C(=O)Nc1ccc(C#N)c(C(F)(F)F)c1` (stereo unspecified): the inhibition entry at Exportin-1 [5] is “inactive”.

Turning to `N[C@@H](CC(=O)N1CCn2c(nnc2C(F)(F)F)C1)Cc1cc(F)c(F)cc1F`, the inhibition entry at Exportin-1 [5] is “inactive”.

For the compound `O=C(/C=C\n1cnc(-c2cc(C(F)(F)F)cc(C(F)(F)F)c2)n1)NNc1cnccn1`, in data set [6], the inhibition entry is “Active”.

`COc1cc(C(=O)NS(=O)(=O)c2ccccc2C)ccc1Cc1cn(C)c2ccc(NC(=O)OC3CCCC3)cc12` [ZAFIRLUKAST]: the inhibition result with MGC-803, in the data set on A2780, on Exportin-1 [7], in the data set on MDA-MB-453 [10], in the data set on HeLa and with HepG2 was “Active” throughout. Also, the inhibition entry in the data set with SW480, at Exportin-1 [5], on Exportin-1 [14], in the data set with Ishikawa and with PANC-1 was “Active” each time. In addition, the IC50 in the data set with HGC-27 came out at 44 µM. The CI in the data set on MDA-MB-453 [8] came out at 0.78; in the data set with MDA-MB-453 [9] it was 0.58; in the data set with MDA-MB-453 [11], 0.78; in the data set with MDA-MB-453 [13], 0.88; in the data set on MDA-MB-453 [16], 0.78. The Stability result in [1] is “Stable”. For the same compound, the result at Exportin-1 [12] and on Exportin-1 [3] was Active. In [6], the inhibition result was “inactive”. For the same compound, the Kd (as a rule, the equilibrium constant for the complex coming apart) at Exportin-1 [15] came to 10 µM.

These data come from ChEMBL document CHEMBL5316307, “Searching for Novel Noncovalent Nuclear Export Inhibitors through a Drug Repurposing Approach” (J Med Chem, 2023).
